In US20250154212A1, “METHOD OF DISRUPTING MEMORY AND LIPOPEPTIDE FOR USE IN SUCH METHOD” (The Research Foundation for The State University of New York, priority 2023, published 2025):
“Also recorded” adds a separate entry of the source. Where no end group is shown, it is not given here. The star is where a group is joined. Myristoyl = CCCCCCCCCCCCCC(=O)*

Tests used:
spatial long-term memory = assay: Active place avoidance, intrahippocampal injection, wild-type mice; assay type: in vivo, mouse; conditions: for spatial memory retention (time to first enter shock zone), 3-day memory: 5 nmol in 0.5 μl per hippocampus 1 day after conditioning; for learning and retention of a new memory (place avoidance in Context B): conditioned 2 days after injection, retention 3 days later
Protocol: For spatial long-term memory experiments, we adapted the approach used in Garcia-Osta et al. (82). Mice were ˜12-weeks old at surgery. Briefly, to implant the injection cannula hardware, mice were anesthetized by an intraperitoneal (i.p.) injection of a mixture of dexmedetomidine ([…] body weight) and ketamine (28 mg/kg body weight), and mounted in a Kopf stereotaxic frame (Tujunga, CA). The tips of guide cannula (Plastics One, Roanoke, VA; Part Numbers: C235GS-5-2.0) were targeted above the injection target in the dorsal hippocampus (AP-1.94 mm; ML±1.00 mm; DV-0.90 mm). The other injection hardware (Part Numbers: C235DCs-5, 303DC/1; cannula dummy, cannula cap, respectively) was assembled, and antisedan (0.65 mg/kg body weight i.p.) was administered to reverse the sedation at the end of surgery.
Three to four weeks after surgery, the animals received active place avoidance training. Before testing the effect of the drug injection on place avoidance, the animals received a bilateral injection of vehicle (PBS [pH 7.4] 0.5 μl/side) and were left in the home cage to habituate to the procedure. Depending on the experimental design, injection of vehicle or drug, either ζ-stat or K-ZAP (5 nmol in 0.5 μl PBS/side), is 1 day or 4 weeks after the training session. During the injection, the animals were restrained, the cannula cap and dummy removed, and the injection needle (Plastics One, Roanoke, VA; Part Numbers: C235IS-5) inserted into the guide cannula so that it protruded from the end of the guide by 0.5 mm. The other end of the needle was connected to a 10 μl Hamilton syringe via Tygon tubing. The drug or vehicle was infused for 1 min, and after the infusion the needle was left in place for 5 min before removal. The animals were then returned to their home cages until the memory retention tests that were conducted 2 days later.
Active place avoidance was conducted with a commercial computer-controlled system (Bio-Signal Group, Acton, MA). The mouse was placed on a 40-cm diameter circular arena rotating at 1 rpm. The specialized software, Tracker (Bio-Signal Group, Acton, MA), was used to detect the animal's position 30 times per second by video tracking from an overhead camera. A clear wall made from polyethylene terephthalate glycol-modified (PET-G) was placed on the arena to prevent the animal from jumping off the elevated arena surface. A 5-pole shock grid was placed on the rotating arena, and the shock was scrambled across the 5-poles when the mouse entered the shock zone. All experiments used the “Room+Arena−” task variant that challenges the mouse on the rotating arena to avoid a shock zone that was a stationary 60° sector (7). Every 33 ms, the software determined the mouse's position, whether it was in the shock zone, and whether to deliver shock. After the animal enters the shock zone for 500 ms, a constant current foot-shock (60 Hz, 500 ms) was delivered and repeated with the interval of 1500 ms until the mouse left the shock zone. The shock intensity was 0.2 or 0.3 mA, which was the minimum amplitude to elicit flinch or escape responses. The animal was forced to actively avoid the designated shock zone because the arena rotation periodically transported it into the shock area.
The tracked animal positions with timestamps were analyzed offline (TrackAnalysis, Bio-Signal Group, Acton, MA) to extract several end-point measures. The time to first enter the shock zone estimates ability to avoid shock and was taken as an index of between-session memory. The number of entrances within one trial was taken as another index to examine the animal learning curve throughout all training trials. A pretraining habituation period on the apparatus equivalent in time to a training session, but without shock, was provided.
The training schedule was as follows: 2 h after a 30-min pretraining habituation, the animals received three 30-min training trials, with an intertrial interval of 2 h. […]

[1] = test system: late-LTP in hippocampal slices of PKMζ-null mice; assay: Late-LTP recording (fEPSP) in hippocampal slices of PKMζ-null mice; assay type: cell-based, mouse; conditions: for effect on late-LTP, tetanized pathway: 10 μM applied 3 h post-tetanization; for effect on baseline synaptic transmission, untetanized pathway: 10 μM in bath
Protocol: Acute mouse hippocampal slices (450 μm) were prepared as previously described (17, 73). Hippocampi from 2-6-month-old male C57/B6 or PKM ζ-null mice as previously described (17) were dissected, bathed in ice-cold dissection buffer, and sliced with a McIlwain tissue slicer in a cold room (4° C.). The dissection buffer contained (in mM): 125 NaCl, 2.5 KCl, 1.25 NaH2PO4, 26 NaHCO3, 11 glucose, 10 MgCl2, and 0.5 CaCl2), and was bubbled with 95% O2/5% CO2 to maintain pH at 7.4. After dissection the slices were immediately transferred into an Oslo-type interface recording chamber (31.5±1° C.) (73). The recording superfusate consisted of (in mM): 118 NaCl, 3.5 KCl, 2.5 CaCl2), 1.3 MgSO4, 1.25 NaH2PO4, 24 NaHCO3, and 15 glucose, bubbled with 95% O2/5% CO2, with a flow rate of 0.5 ml/min. In a subset of experiments a custom-made recirculation system employing piezoelectric pumps was used for recycling the superfusate (Bartels Mikrotechnik GmbH, Dortmund, Germany) (73).
Field EPSPs were recorded with a glass extracellular recording electrode (2-5 M (2) placed in the CA1 st. radiatum, and concentric bipolar stimulating electrodes (CBBRE75 and 30200; FHC, Bowdoin, ME) were placed on either side within CA3 or CA1. Test stimulation rate was once every 30 sec, alternating every 15 sec between stimulating electrodes. Based upon a pre-established exclusion criterion, a slice was not used if fEPSP spike threshold was <2 mV on initial input-output analysis. Pathway independence was confirmed by the absence of paired-pulse facilitation between the two pathways. A single stimulating electrode was used for PLA/immunocytochemistry with a test stimulation rate of once every 30 sec. The high-frequency stimulation, optimized to produce a relatively rapid onset of protein synthesis-dependent late-LTP (74), consisted of two 100 Hz-1 s tetanic trains, at 25% of spike threshold, spaced 20 sec apart. The maximum slope of the rise of the fEPSP was analyzed on a PC using the WinLTP data acquisition program (75).
Replicates are biological because there is only one measurement for each sample. Drug/vehicle comparisons were performed blindly. Sample sizes vary for the different experimental approaches (biochemistry, slice physiology, and behavior) and were established by power analyses based on effect size estimates from published work or preliminary experiments. The observed effect sizes for binary comparisons are reported as Cohen's d and as η^2p for ANOVA effects. Multi-factor comparisons were performed using ANOVA with repeated measures, as appropriate. Two-population Student's/tests were performed to compare protein immunofluorescence intensity between control and potentiated hippocampal slices. For LTP experiments, the responses were first normalized to the mean of the 30 min period prior to tetanization (or equivalent in control pathways), and then the means over 5 min periods were used for statistical comparisons (e.g., pre-tetanization, beginning and end of drug application). Paired Student's t tests were used to compare the change in the potentiated response at time points at the beginning and end of drug application. The degrees of freedom for the critical t values of the/tests and the F values of the ANOVAs are reported as subscripts. Post-hoc multiple comparisons were performed by Newman-Keuls tests as appropriate. Statistical significance was accepted at P<0.05 or appropriate Bonferroni correction for multiple comparisons. […]

Question: `O=S(=O)(O)c1cc(O)c2c(S(=O)(=O)O)cc(S(=O)(=O)O)cc2c1` [ζ-stat, 1-naphthol-3,6,8-trisulphonic acid] was tested. Which “spatial memory retention (time to first enter shock zone), 3-day memory” value (shortened to “spatial memory retention … 3-day memory”) (spatial long-term memory; tested 2 days post-injection) did it give?
Answer: Its value is “persistent loss of retention”.

Question: What about the “spatial memory retention … 3-day memory” value (spatial long-term memory; tested 2 days post-injection, listed as z-stat) of the same compound?
Answer: Its value is “disrupts spatial memory retention; also recorded: disrupt memory retention for the established memory”.

Question: What about the “learning and retention of a new memory (place avoidance in Context B)” value (spatial long-term memory) of the same compound?
Answer: The value was “learn to avoid and remember a new second location as well as the mice that had received only vehicle”.

Question: What about the “learning and retention of a new memory (place avoidance in Context B)” value (spatial long-term memory; listed as z-stat) of the same compound?
Answer: Its value is “do not disrupt learning or retention of a new memory”.

Question: And the “effect on late-LTP, tetanized pathway” value [1]?
Answer: Its value is “has no effect on late-LTP maintenance”.

Question: And the “effect on late-LTP, tetanized pathway” value ([1]; listed as z-stat)?
Answer: Its value is “has no effect on late-LTP”.

Question: What about the “effect on baseline synaptic transmission, untetanized pathway” value [1] of the same compound?
Answer: The value was “has no effect on late-LTP or baseline synaptic transmission”.

Question: For “myr-N-FVRNSLERRSVRMKRPS-C (Myristoyl-FVRNSLERRSVRMKRPS) [K-ZAP]”, which “spatial memory retention … 3-day memory” value (spatial long-term memory; tested 2 days post-injection) is on record?
Answer: The value was “disrupts established spatial long-term memory retention; also recorded: loss of memory retention”.

Question: What about the “remote spatial memory retention, 30-day memory” value (spatial long-term memory; 5 nmol in 0.5 μl/side injected 4 weeks after training, tested 2 days post-injection) of the same compound?
Answer: Its value is “disrupts remote spatial memory; also recorded: loss of memory retention 30 days post-training”.

Question: What about the “effect on late-LTP, tetanized pathway” value [1] of the same compound?
Answer: The value was “has no effect on late-LTP maintenance; also recorded: has no effect on PKMz-null-LTP”.

Question: And the “effect on baseline synaptic transmission, untetanized pathway” value [1]?
Answer: The value was “no effect”.
